Data on 21 molecules can be found in PubChem BioAssay (NCI).

Where “and” joins values, the source holds several entries; their conditions need not be identical. Equal values may be shown once.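 How tested: cells in 96-well plates exposed to compound for 48 hours at five concentrations. At the GI50, growth is halved. TGI marks complete inhibition of growth.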 A value given as a limit tells only on which side of the number the result lay.

Common to all, as to experiment: NCI-60 cell line screen, 48 h
In test [1] the test system is NCI-H226 lung.
In test [2] the test system is SNB-19 CNS.
In test [3] the test system is A498 renal.
The test system of test [4] is COLO 205 colon.
The subject of test [5] is 786-0 renal.
Test [6] concerns OVCAR-4 ovarian.
In test [7] the test system is HOP-92 NSCLC.
Test [8] has as its system SK-MEL-28 melanoma.
The subject of test [9] is NCI-H23 lung.
In test [10] the test system is RPMI-8226 leukemia.
Test [11] deals with CAKI-1 renal.
Test [12] has as its system IGROV1 ovarian.
The subject of test [13] is NCI/ADR-RES ovarian.
The test system of test [14] is MCF7 breast.
Test [15] has as its system PC-3 prostate.
The test system of test [16] is MDA-N.

Regarding `N#Cc1cccc2c1Nc1ccccc1S2`, the TGI in test [1], in test [2], in [3], in test [4], in test [5] and in [6] was more than 100 µM in each case. Besides, the TGI in test [7] is 92.3 µM; in test [8], more than 100 µM; in [9], more than 100 µM; in test [10], more than 100 µM; in test [11], more than 100 µM; in test [12], more than 100 µM.

On to `COP(=O)(OC)C(=O)N1N(c2ccc([N+](=O)[O-])cc2)C(=O)C(C)NC1(NNc1ccc([N+](=O)[O-])cc1)P(=O)(OC)OC` (stereo not given), for which the TGI in test [1], in test [2], in test [3], in test [4], in test [5] and in test [6] was more than 100 µM each time. Moreover, the TGI in test [7], in test [8], in test [9], in [10], in test [11] and in [12] was more than 100 µM throughout.

`O=C(c1ccccc1)c1c(CC(O)c2ccccn2)n(C(=O)c2ccccc2)c2ccccc12` (stereo not given): the TGI in test [1] is 54 µM; in test [2] it was more than 100 µM; in test [4], 50.5 µM; in [5], more than 100 µM; in test [6], more than 100 µM; in test [7] it was 57.5 µM. Moreover, the TGI in [8] is 39.6 µM; in [9] it was 56.3 µM; in test [10] it was 56 µM; in [11], more than 100 µM; in [12] it was more than 100 µM.

For `N#CC(C(=O)c1cccnc1Cl)c1nc2cc(C(F)(F)F)ccc2s1` (stereo not given), the TGI in test [1] was more than 100 µM; in test [2], more than 100 µM; in test [3], 87 µM; in test [13], more than 100 µM; in [4], more than 100 µM; in test [5], more than 100 µM. The TGI in [6] was more than 100 µM; in [7], 54.4 µM; in [8] it was more than 100 µM; in test [9], more than 100 µM; in test [10], more than 100 µM; in test [11], more than 100 µM. This molecule also showed a TGI in test [12] of more than 100 µM.

`COc1ccc(C2=C(Cl)c3cc(OC)c(OC)cc3C2OC)cc1OC` (stereo not given): the TGI in test [1], in [2], in [3], in test [4], in test [5] and in test [6] was more than 100 µM each time. Also, the TGI in test [7], in [8], in test [9], in test [10], in [11] and in [12] was more than 100 µM in each case.

As to `O=C(O)CN1C=C(C(=O)c2cc3ccccc3n2S(=O)(=O)c2ccccc2)CCC1`, the TGI in test [1], in test [2], in test [3], in test [14], in test [15] and in [13] was more than 100 µM each time. For the same molecule, the TGI in test [4] is 42.5 µM; in [5] it was more than 100 µM; in test [6] it was more than 100 µM; in test [7] it was more than 100 µM; in [8], more than 100 µM; in [9] it was more than 100 µM. Further, the TGI in test [11] and in [12] was more than 100 µM each time.

Regarding `CNNC1=NS(=O)(=O)c2cc(C#N)c(Cl)cc2S1`, the TGI in [1], in test [2], in test [3], in [15], in test [13] and in test [4] was more than 10 µM in each case. Also, the TGI in [5], in [16], in test [6], in test [8], in [9] and in test [10] was more than 10 µM each time. For the same molecule, the TGI in [11] and in [12] was more than 10 µM throughout.

Take `CCN(CC)c1cccc2c1/C(=N/O)CCCC2`: the TGI in test [1], in [2], in [4], in test [5], in test [6] and in test [8] was more than 100 µM in each case. The TGI in [9] and in test [10] was more than 100 µM each time.

As to `O=[N+]([O-])c1cccc2nc3ccccc3c(NCCCn3ccnc3[N+](=O)[O-])c12`, the TGI in test [1] is 0.00362 µM and 0.0351 µM; in test [2], 0.0153 µM; in test [14], 0.00146 µM; in test [15] it was 0.0236 µM; in test [13] it was 0.495 µM and 0.348 µM; in [5], 0.0137 µM. Besides, the TGI in test [16] is 0.000244 µM; in test [6], 0.0735 µM and 0.171 µM; in [9], 0.023 µM; in test [10] it was 0.000419 µM; in [11], 0.0816 µM and 0.188 µM; in test [12], 0.212 µM and 0.412 µM. The GI50 in test [13] is 0.0125 µM; in [6] it was 0.0203 µM; in test [8] it was 45.4 µM; in test [12], 0.0419 µM.

Take `Cc1ccc(S(=O)(=O)NC(=O)NCCc2cnc[nH]2)cc1`: the TGI in test [1], in test [2], in test [3], in test [14], in test [15] and in test [13] was more than 100 µM in each case. Moreover, the TGI in test [4], in [5], in test [6], in [7], in [8] and in test [9] was more than 100 µM in each case. The TGI in test [10], in test [11] and in [12] was more than 100 µM in each case.

On to `CCc1n[nH]c(=O)n1/N=C/c1ccccc1O`, for which the TGI in [2], in [14], in [15], in test [13], in test [4] and in test [5] was more than 100 µM throughout. Further, the TGI in [16], in test [6], in test [7], in [8], in [9] and in [10] was more than 100 µM in each case. The TGI in test [12] was more than 100 µM.

On to `C[C@@H](c1ccccc1)n1c(N)c(-c2ccccn2)c2ccc([N+](=O)[O-])cc2c1=O`, for which the TGI in [1] was more than 100 µM; in test [2], more than 100 µM; in [3] it was 65.5 µM; in test [15], more than 100 µM; in test [13] it was more than 100 µM; in [4] it was more than 100 µM. Moreover, the TGI in test [5], in test [16], in test [6], in test [7], in test [8] and in test [9] was more than 100 µM each time. The TGI in test [11] is more than 100 µM.

As for `CC1(C)O[C@@H]([C@H](O)CO)[C@H](O)[C@@H](C2SCCCS2)O1`, the TGI in [1], in test [2], in test [3], in test [14], in [15] and in [13] was more than 100 µM throughout. The TGI in test [4], in test [5], in test [6], in test [7], in test [8] and in test [9] was more than 100 µM throughout. The TGI in test [10], in test [11] and in test [12] was more than 100 µM in each case.

Regarding `CCc1ccccc1N=NC(=O)NNc1ccccc1CC`, the TGI in test [1] amounted to 34.4 µM; in [2], 95 µM; in [3], 36.5 µM; in test [14], 36.3 µM; in [15], 37.5 µM; in [5], 31.6 µM. Also, the TGI in [16] stood at 33.2 µM; in test [6], 69.8 µM; in test [8], 32.2 µM; in [9] it was 39.8 µM; in [10] it was 77.3 µM; in [11], 95.2 µM. Further, in test [12], the TGI was 26 µM.

Turning to `CC(C)OP(=O)(OC(C)C)/C(Cl)=N/Nc1ccc([N+](=O)[O-])cc1`, the TGI in [2], in [3], in test [4], in test [5], in [6] and in [7] was more than 100 µM each time. Also, the TGI in test [8], in test [9], in test [10] and in test [11] was more than 100 µM in each case.

Regarding `COc1ccccc1NC(=S)N/N=C/c1c(C)n(C)n(-c2ccccc2)c1=O`, the TGI is more than 100 µM in [1]; more than 100 µM in [2]; more than 100 µM in test [3]; more than 100 µM in [14]; more than 100 µM in [15]; 63.9 µM in test [13]. Moreover, the TGI in test [4], in test [5], in test [6], in [7], in [8] and in test [9] was more than 100 µM in each case. Further, the TGI in [10], in [11] and in test [12] was more than 100 µM each time.

On to `OC(c1ccc(F)cc1)C(F)(F)c1nc2ccccc2o1` (stereo not given), for which the TGI in test [1], in test [2], in test [3], in test [14], in [15] and in [13] was more than 100 µM each time. For the same molecule, the TGI in test [4], in test [5], in test [6], in test [7], in test [8] and in test [9] was more than 100 µM in each case. Also, the TGI in [10], in [11] and in test [12] was more than 100 µM each time.

Consider `c1ccc([P+](CCSCCSCC[P+](c2ccccc2)(c2ccccc2)c2ccccc2)(c2ccccc2)c2ccccc2)cc1`, for which the TGI in [1], in test [2], in test [3], in test [14], in test [13] and in test [4] was more than 100 µM each time. The TGI in test [5], in [16], in [6], in test [7], in [8] and in test [9] was more than 100 µM in each case. Further, in [12], the TGI was more than 100 µM.

Consider `CCN(CC)C(=O)Cc1c(C(=O)N(CC)CC)c(=O)nc2sccn12`, for which the TGI in test [1], in test [2], in test [3], in [4], in [5] and in test [6] was more than 100 µM each time. Besides, the TGI in [7], in test [8], in [9], in test [10] and in test [12] was more than 100 µM throughout.

For the molecule `N#Cc1nc(CCN2C(=O)c3ccccc3C2=O)oc1N`, the TGI in test [1], in test [2], in test [14], in [15], in test [13] and in test [4] was more than 100 µM in each case. Further, the TGI in test [5], in [16], in [6], in test [8], in test [9] and in test [10] was more than 100 µM throughout. For the same molecule, the TGI in test [11] and in test [12] was more than 100 µM each time.

With `CCOC(=O)c1c(N)n(-c2ccccc2)c(=O)n(-c2ccccc2)c1=O`, the TGI in test [1], in test [2], in test [14], in test [4], in test [5] and in test [6] was more than 100 µM throughout. Further, the TGI in [7], in test [8], in test [9], in test [10] and in test [12] was more than 100 µM each time.
